Data reported in US4346076A, “Bis-tetrazoylmethyl substituted cephalosporin antibiotics” (Eli Lilly and Company, priority 1980, dated 1982).
In brackets after ≈: the same amount, converted by molar mass. Where two headings read alike, the source gives them in different places.

Assays:
[1] = test system: Staphylococcus epidermidis; assay: in vitro antibacterial activity, agar dilution; assay type: cell-based
Text: (§1) The bis-tetrazol-thiomethyl substituted cephalosporins of this invention are broad spectrum antibiotics which inhibit the growth of both gram positive and gram negative microorganisms which are pathogenic to man and animals. […] The following Table 2 lists the minimum inhibitory concentrations of representative compounds of the invention.
(§2) The data in TABLE 2 were obtained in the agar dilution test method using Mueller-Hinton agar containing two percent Supplement C (Difco). Serial two-fold dilutions were run with the highest concentration on test at 128 mcg/ml.

[2] = test system: Pseudomonas aeruginosa; assay: in vitro antibacterial activity, agar dilution; assay type: cell-based
Text: as §1, §2

[3] = test system: Salmonella sp.; assay: in vitro antibacterial activity, agar dilution; assay type: cell-based
Text: as §1, §2

[4] = test system: Escherichia coli; assay: in vitro antibacterial activity, agar dilution; assay type: cell-based
Text: as §1, §2

[5] = test system: Proteus inconstans; assay: in vitro antibacterial activity, agar dilution; assay type: cell-based; settings: Providencia alcalifaciens, read-out: Minimum Inhibitory Concentration
Text: as §1, §2

[6] = test system: Streptococcus Group D; assay: in vitro antibacterial activity, agar dilution; assay type: cell-based; settings: read-out: Minimum Inhibitory Concentration
Text: as §1, §2

[7] = test system: Streptococcus pneumoniae; assay: in vitro antibacterial activity, agar dilution; assay type: cell-based; settings: strain PARK, read-out: Minimum Inhibitory Concentration
Text: as §1, §2

[8] = test system: Citrobacter freundii; assay: in vitro antibacterial activity, agar dilution; assay type: cell-based; settings: strain CF17, read-out: Minimum Inhibitory Concentration
Text: as §1, §2

[9] = test system: Enterobacter cloacae; assay: in vitro antibacterial activity, agar dilution; assay type: cell-based
Text: as §1, §2

[10] = test system: Haemophilus influenzae; assay: in vitro antibacterial activity, agar dilution; assay type: cell-based; settings: for MIC: Haemophilus influenzae, read-out: Minimum Inhibitory Concentration
Text: as §1, §2

[11] = test system: Serratia marcescens; assay: in vitro antibacterial activity, agar dilution; assay type: cell-based
Text: as §1, §2

[12] = test system: Streptococcus Group A; assay: in vitro antibacterial activity, agar dilution; assay type: cell-based; settings: strain C203; read-out: Minimum Inhibitory Concentration
Text: as §1, §2

[13] = test system: Shigella sonnei; assay: in vitro antibacterial activity, agar dilution; assay type: cell-based; settings: strain N9, read-out: Minimum Inhibitory Concentration
Text: as §1, §2

[14] = test system: Klebsiella sp.; assay: in vitro antibacterial activity, agar dilution; assay type: cell-based
Text: as §1, §2

[15] = test system: Enterobacter aerogenes; assay: in vitro antibacterial activity, agar dilution; assay type: cell-based; settings: Klebsiella aerogenes, read-out: Minimum Inhibitory Concentration
Text: as §1, §2

[16] = test system: Proteus morganii; assay: in vitro antibacterial activity, agar dilution; assay type: cell-based; settings: Morganella morganii; strain PR15; read-out: Minimum Inhibitory Concentration
Text: as §1, §2

[17] = test system: Staphylococcus aureus; assay: in vitro antibacterial activity, agar dilution; assay type: cell-based
Text: as §1, §2

[18] = test system: Proteus rettgeri; assay: in vitro antibacterial activity, agar dilution; assay type: cell-based; settings: for MIC: Providencia rettgeri, read-out: Minimum Inhibitory Concentration
Text: as §1, §2

[19] = test system: Bordetella bronchoseptica; assay: in vitro antibacterial activity, agar dilution; assay type: cell-based; settings: strain 16, read-out: Minimum Inhibitory Concentration
Text: as §1, §2

[20] = test system: Escherichia coli (EC14); assay: in vivo activity in infected mice; settings: sc, doses at 1 and 5 hours post infection
Protocol: (§3) Compound E (TABLE 2), a preferred compound of the invention, was administered to mice infected with various pathogens to determine the compound's effective dose (ED50). Listed below in TABLE 3 are the ED50 values determined with the indicated infectious organism. | ^1 Subcutaneous doses at 1 and 5 hours post infection

[21] = test system: Staphylococcus aureus (3055); assay: in vivo activity in infected mice; settings: sc, doses at 1 and 5 hours post infection
Protocol: as §3

[22] = test system: Serratia marcescens (SE3); assay: in vivo activity in infected mice; settings: sc, doses at 1 and 5 hours post infection
Protocol: as §3

[23] = test system: Streptococcus pyogenes (C203); assay: in vivo activity in infected mice; settings: sc, doses at 1 and 5 hours post infection
Protocol: as §3

[24] = test system: Proteus vulgaris (PV2S); assay: in vivo activity in infected mice; settings: sc, doses at 1 and 5 hours post infection
Protocol: as §3

[25] = test system: ampicillin-resistant Haemophilus influenzae; assay: treatment of ampicillin-resistant Haemophilus influenzae meningitis in infant rats; assay type: in vivo
[26] = levels in cerebro-spinal fluid of rats; assay type: in vivo; settings: 20 mg/kg s.c.
[27] = strain EPI1, read-out: Minimum Inhibitory Concentration
[28] = strain EPI2, read-out: Minimum Inhibitory Concentration
[29] = strain Ps18, read-out: Minimum Inhibitory Concentration
[30] = strain X239, read-out: Minimum Inhibitory Concentration
[31] = strain X528, read-out: Minimum Inhibitory Concentration
[32] = strain 1335, read-out: Minimum Inhibitory Concentration
[33] = strain X514, read-out: Minimum Inhibitory Concentration
[34] = strain EC14, read-out: Minimum Inhibitory Concentration
[35] = strain N10, read-out: Minimum Inhibitory Concentration
[36] = strain TEM, read-out: Minimum Inhibitory Concentration
[37] = strain 265A, read-out: Minimum Inhibitory Concentration
[38] = strain EB5, read-out: Minimum Inhibitory Concentration
[39] = strain SE3, read-out: Minimum Inhibitory Concentration
[40] = strain X93, read-out: Minimum Inhibitory Concentration
[41] = strain KAE, read-out: Minimum Inhibitory Concentration
[42] = strain X26, read-out: Minimum Inhibitory Concentration
[43] = read-out: Minimum Inhibitory Concentration
[44] = strain V41, read-out: Minimum Inhibitory Concentration
[45] = strain X1.1, read-out: Minimum Inhibitory Concentration
[46] = strain X400, read-out: Minimum Inhibitory Concentration

CO/N=C(\C(=O)N[C@@H]1C(=O)N2C(C(=O)O)=C(CSc3nnn(Cc4nnn[nH]4)n3)CS[C@H]12)c1csc(N)n1 [G, syn 7β-[α-methoximino-α-(2-amino-1,3-thiazol-4-yl)-acetamido]-3-[2-(1H-tetrazol-5-ylmethyl)-2H-tetrazol-5-ylthiomethyl]-3-cephem-4-carboxylic acid]
MIC [1, 27]: 32 µg/mL (≈ 55.2 µM)
MIC [1, 28]: 64 µg/mL (≈ 110 µM)
MIC [2, 29]: 32 µg/mL (≈ 55.2 µM)
MIC [2, 30]: 16 µg/mL (≈ 27.6 µM)
MIC [2, 31]: 16 µg/mL (≈ 27.6 µM)
MIC [3, 32]: 0.5 µg/mL (≈ 0.863 µM)
MIC [3, 33]: 0.125 µg/mL (≈ 0.216 µM)
MIC [4, 34]: 0.125 µg/mL (≈ 0.216 µM)
MIC [4, 35]: 0.25 µg/mL (≈ 0.431 µM)
MIC [4, 36]: 0.125 µg/mL (≈ 0.216 µM)
MIC ([5]; strain PR33): 1 µg/mL (≈ 1.73 µM)
MIC ([6]; strain 9960): > 128 µg/mL
MIC ([6]; strain X66): > 128 µg/mL
MIC [7]: 0.03 µg/mL (≈ 0.0518 µM)
MIC [8]: 64 µg/mL (≈ 110 µM)
MIC [9, 37]: 64 µg/mL (≈ 110 µM)
MIC [9, 38]: 2 µg/mL (≈ 3.45 µM)
MIC ([10]; strain 251, resistant strain): 0.06 µg/mL (≈ 0.104 µM)
MIC ([10]; strain Brun, sensitive strain): 0.06 µg/mL (≈ 0.104 µM)
MIC [11, 39]: 2 µg/mL (≈ 3.45 µM)
MIC [11, 40]: 0.25 µg/mL (≈ 0.431 µM)
MIC [12]: 0.03 µg/mL (≈ 0.0518 µM)
MIC [13]: 2 µg/mL (≈ 3.45 µM)
MIC [14, 41]: 8 µg/mL (≈ 13.8 µM)
MIC [14, 42]: 0.125 µg/mL (≈ 0.216 µM)
MIC ([15]; strain C32): 0.25 µg/mL (≈ 0.431 µM)
MIC ([15]; strain EB17): 0.25 µg/mL (≈ 0.431 µM)
MIC ([15]; strain X68): 0.06 µg/mL (≈ 0.104 µM)
MIC [16]: 0.5 µg/mL (≈ 0.863 µM)
MIC [17, 43]: 32 µg/mL (≈ 55.2 µM)
MIC [17, 44]: 8 µg/mL (≈ 13.8 µM)
MIC [17, 45]: 4 µg/mL (≈ 6.9 µM)
MIC [17, 46]: > 128 µg/mL
MIC ([18]; strain C24): 2 µg/mL (≈ 3.45 µM)
MIC ([18]; strain PR7): 0.03 µg/mL (≈ 0.0518 µM)
MIC [19]: 64 µg/mL (≈ 110 µM)

CO/N=C(\C(=O)N[C@@H]1C(=O)N2C(C(=O)O)=C(CSc3nnnn3Cc3nnn[nH]3)CS[C@H]12)c1csc(N)n1 [Compound E, syn 7β-[α-methoximino-α-(2-amino-1,3-thiazol-4-yl)-acetamido]-3-[1-(1H-tetrazol-5-ylmethyl)-1H-tetrazol-5-ylthiomethyl]-3-cephem-4-carboxylic acid]
MIC [1, 27]: 16 µg/mL (≈ 27.6 µM)
MIC [1, 28]: 64 µg/mL (≈ 110 µM)
MIC [2, 29]: 8 µg/mL (≈ 13.8 µM)
MIC [2, 30]: 16 µg/mL (≈ 27.6 µM)
MIC [2, 31]: 8 µg/mL (≈ 13.8 µM)
MIC [3, 32]: 0.25 µg/mL (≈ 0.431 µM)
MIC [3, 33]: 0.125 µg/mL (≈ 0.216 µM)
MIC [4, 43]: 0.125 µg/mL (≈ 0.216 µM)
MIC [4, 34]: 0.06 µg/mL (≈ 0.104 µM)
MIC [4, 35]: 0.25 µg/mL (≈ 0.431 µM)
MIC [5]: 0.125 µg/mL (≈ 0.216 µM)
MIC ([6]; strain 9960): 16 µg/mL (≈ 27.6 µM)
MIC ([6]; strain X66): > 128 µg/mL
MIC [7]: 0.03 µg/mL (≈ 0.0518 µM)
MIC [8]: 32 µg/mL (≈ 55.2 µM)
MIC [9, 37]: 64 µg/mL (≈ 110 µM)
MIC [9, 38]: 2 µg/mL (≈ 3.45 µM)
MIC [10]: 0.125 µg/mL (≈ 0.216 µM)
Minimum Inhibitory Concentration ([10]; strain 251, resistant strain): .125 µg/mL
MIC [11, 39]: 1 µg/mL (≈ 1.73 µM)
MIC [11, 40]: 0.25 µg/mL (≈ 0.431 µM)
MIC [12]: 0.06 µg/mL (≈ 0.104 µM)
MIC [13]: 0.125 µg/mL (≈ 0.216 µM)
MIC [14, 41]: 16 µg/mL (≈ 27.6 µM)
MIC [14, 42]: 0.06 µg/mL (≈ 0.104 µM)
MIC ([15]; strain C32): 0.25 µg/mL (≈ 0.431 µM)
MIC ([15]; strain EB17): 0.25 µg/mL (≈ 0.431 µM)
MIC ([15]; strain X68): 0.06 µg/mL (≈ 0.104 µM)
MIC [16]: 0.06 µg/mL (≈ 0.104 µM)
MIC [17, 43]: 16 µg/mL (≈ 27.6 µM)
MIC [17, 44]: 8 µg/mL (≈ 13.8 µM)
MIC [17, 45]: 4 µg/mL (≈ 6.9 µM)
MIC [17, 46]: > 128 µg/mL
MIC [18]: 0.125 µg/mL (≈ 0.216 µM)
Minimum Inhibitory Concentration ([18]; strain C24): .125 µg/mL
MIC [19]: 32 µg/mL (≈ 55.2 µM)
ED50 [20]: 0.16 mg/kg
ED50 [21]: 7.6 mg/kg
ED50 [22]: 1 mg/kg
ED50 [23]: 0.21 mg/kg
ED50 [24]: 0.12 mg/kg
effectiveness in treatment of meningitis [25]: effective in the treatment
levels in the cerebro-spinal fluid [26]: present in effective levels

Cn1nnnc1Cn1nnnc1SCC1=C(C(=O)O)N2C(=O)[C@@H](NC(=O)Cc3cccs3)[C@H]2SC1 [B]
MIC [1, 27]: 4 µg/mL (≈ 7.48 µM)
MIC [1, 28]: 4 µg/mL (≈ 7.48 µM)
MIC [2, 29]: > 128 µg/mL
MIC [2, 30]: > 128 µg/mL
MIC [2, 31]: > 128 µg/mL
MIC [3, 32]: 1 µg/mL (≈ 1.87 µM)
MIC [3, 33]: 0.5 µg/mL (≈ 0.935 µM)
MIC [4, 34]: 2 µg/mL (≈ 3.74 µM)
MIC [4, 35]: 4 µg/mL (≈ 7.48 µM)
MIC [4, 36]: 8 µg/mL (≈ 15 µM)
MIC ([5]; strain PR33): 64 µg/mL (≈ 120 µM)
MIC ([6]; strain 9960): 64 µg/mL (≈ 120 µM)
MIC ([6]; strain X66): 128 µg/mL (≈ 239 µM)
MIC [7]: 2 µg/mL (≈ 3.74 µM)
MIC [8]: > 128 µg/mL
MIC [9, 37]: > 128 µg/mL
MIC [9, 38]: > 128 µg/mL
MIC ([10]; strain 76, resistant strain): 0.5 µg/mL (≈ 0.935 µM)
MIC ([10]; strain C.L., sensitive strain): 1 µg/mL (≈ 1.87 µM)
MIC [11, 39]: > 128 µg/mL
MIC [11, 40]: > 128 µg/mL
MIC [12]: 1 µg/mL (≈ 1.87 µM)
MIC [13]: 4 µg/mL (≈ 7.48 µM)
MIC [14, 41]: > 128 µg/mL
MIC [14, 42]: 0.5 µg/mL (≈ 0.935 µM)
MIC ([15]; strain C32): 32 µg/mL (≈ 59.9 µM)
MIC ([15]; strain EB17): 16 µg/mL (≈ 29.9 µM)
MIC ([15]; strain X68): 0.5 µg/mL (≈ 0.935 µM)
MIC [16]: 64 µg/mL (≈ 120 µM)
MIC [17, 43]: 4 µg/mL (≈ 7.48 µM)
MIC [17, 44]: 2 µg/mL (≈ 3.74 µM)
MIC [17, 45]: 0.5 µg/mL (≈ 0.935 µM)
MIC [17, 46]: 32 µg/mL (≈ 59.9 µM)
MIC ([18]; strain C24): 8 µg/mL (≈ 15 µM)
MIC ([18]; strain PR7): 4 µg/mL (≈ 7.48 µM)
MIC [19]: 8 µg/mL (≈ 15 µM)
